Patent US6420409B1, “Benzimidazole derivatives” (Fujisawa Pharmaceutical Co., Ltd., priority 1997, dated 2002)

Test system: db/db mice
Assay: Test for Activity of Decreasing Plasma Glucose using db/db Mice
Format: in vivo
Conditions: female db/db mice, dose of 10 mg/kg, mixed with powdered chow (0.01%), 14 days, difference between db/db and +/+ mouse groups defined as 100%
From the text: Test Example: Test for Activity of Decreasing Plasma Glucose using db/db Mice
1-(Isoquinolin-3-ylmethyl)-2-methyl-6-(1-pentanesulfonyl-carbamoyl)benzimidazole (13)
Five-week-old female mice [C57BL/KsJ-dbm db+/db+, C57BL/KsJ-dbm +m/+m (Jackson Laboratory) were purchased, and were kept for 2 to 3 weeks. Then, these mice were used in the test.
A test compound was mixed with a powdered chow (CE-2, made by Nippon Clea) using a mortar. The mixing ratio was 0.01%. The mixed chow was changed twice a week. The feed amount and the remaining amount were recorded, and the intake was calculated from the difference therebetween.
The female db/db mice were grouped according to the body weight, the plasma glucose and the plasma triglyceride concentrations. […] Plasma glucose, triglyceride, and insulin concentrations were measured on day 0 and day 14 as well as plasma glucose and triglyceride concentrations on day 7. The body weight was measured on day 0, day 7 and day 14. […]
The plasma glucose was measured by a glucose oxidase method (Glucose CII-Test Wako made by Wako Pure Chemical Industries, Ltd.) using from 10 to 15 μl of plasma. The plasma triglyceride concentration was measured by a GPO-p-chlorophenol method (Triglyceride G-Test Wako made by Wako Pure Chemical Industries, Ltd.) or a GPO-DAOS method (Triglyceride E-Test Wako) using from 10 to 15 μl of plasma. […]

CCCCCS(=O)(=O)NC(=O)c1ccc2nc(C)n(Cc3cc4ccccc4cn3)c2c1 [Compound 13, 1-(Isoquinolin-3-ylmethyl)-2-methyl-6-(1-pentane-sulfonylcarbamoyl)benzimidazole]
plasma glucose decreasing activity: 44%
TG concentration-decreasing activity (plasma triglyceride): 77%
